Literature values as cited in patent US7276641B2, “External plaster containing 4-biphenylacetic acid” (Teikoku Seiyaku Co., Ltd., priority 2000, dated 2007).
Read-outs that look alike come from different tables or passages of the source.

O=C(O)Cc1ccc(-c2ccccc2)cc1 [BPAA, 4-biphenylyl acetic acid]
solubility (aqueous plaster with diisopropanolamine as solubilizer): not more than 11% | solubility (crotamiton as solubilizer): at most 7% | solubility (in acetone, ethanol, glacial acetic acid, and ether): less soluble | solubility (in dimethylacetamide): readily soluble | solubility (in polyols, glycols, and esters): hardly soluble | solubility (in water): hardly soluble
